≈ marks a conversion by molar mass, not a printed value. Where “and” joins values, the source holds several entries; their conditions need not be identical. Identical values can stand only once.
How the values were obtained:
in vitro = in vitro ADME; conditions: microsomes
Protocol: (§1) Additionally, an initial absorption, distribution, metabolism, and excretion (ADME) profile of the compound series was performed (Table 4).

physchem = type: physicochemical; conditions: for logD: pH 7.4; for solubility kinetic: pH 7.4, aqueous buffer, kinetic from dmso stock
Protocol: as §1

HepG2 cells = assay: Cell proliferation and cytotoxicity in HepG2 cells (CellTiterGlo); type: cell-based; conditions: Homo sapiens, 48 h
Protocol: as §1

NRP-1/VEGF-A interaction [1] = molecular target: T1, NRP-1/VEGF-A interaction (Homo sapiens, UniProt O14786); assay: ELISA-based NRP1-VEGF-A165 protein binding assay (single concentration); conditions: compounds 12.5 μM (Spike S1 100 nM), biotinylated VEGF-A165 10 nM; ± standard error of the mean, n = 11
T1 construct: coated with the extracellular domain of human NRP-1 (containing the a1a2 and the b1b2 regions); purchased Fisher, Hampton, NH 50-101-8343
T1 sequence (O14786 22-856 limits assumed): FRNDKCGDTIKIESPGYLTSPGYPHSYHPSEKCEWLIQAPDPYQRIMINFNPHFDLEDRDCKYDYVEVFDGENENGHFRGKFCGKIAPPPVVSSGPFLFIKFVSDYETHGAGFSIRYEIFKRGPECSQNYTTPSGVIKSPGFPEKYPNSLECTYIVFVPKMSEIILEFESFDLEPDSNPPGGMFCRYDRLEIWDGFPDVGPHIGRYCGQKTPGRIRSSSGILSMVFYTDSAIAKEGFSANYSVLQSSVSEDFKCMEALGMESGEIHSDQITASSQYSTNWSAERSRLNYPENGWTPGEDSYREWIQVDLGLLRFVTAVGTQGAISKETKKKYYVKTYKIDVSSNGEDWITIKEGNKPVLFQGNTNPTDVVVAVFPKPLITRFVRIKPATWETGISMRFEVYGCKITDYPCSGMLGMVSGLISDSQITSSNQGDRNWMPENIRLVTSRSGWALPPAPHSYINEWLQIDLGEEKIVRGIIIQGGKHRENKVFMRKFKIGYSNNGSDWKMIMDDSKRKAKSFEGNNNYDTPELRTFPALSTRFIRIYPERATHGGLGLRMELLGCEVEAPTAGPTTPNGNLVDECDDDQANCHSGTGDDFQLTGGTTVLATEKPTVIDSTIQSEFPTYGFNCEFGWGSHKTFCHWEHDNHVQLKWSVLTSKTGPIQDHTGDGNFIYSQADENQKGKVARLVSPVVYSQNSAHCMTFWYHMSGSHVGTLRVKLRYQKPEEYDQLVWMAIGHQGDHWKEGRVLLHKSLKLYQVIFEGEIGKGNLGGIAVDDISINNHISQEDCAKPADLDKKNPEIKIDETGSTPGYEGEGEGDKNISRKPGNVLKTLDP

NRP-1/VEGF-A interaction [2] = molecular target: T1, NRP-1/VEGF-A interaction; assay: ELISA-based NRP1-VEGF-A165 protein binding assay (concentration-response, IC50); conditions: 20 nM biotinylated hVEGF-A165 with 4 μg/ml heparin, n=3, read-out: Calculated IC50 values of inhibiting the NRP-1/VEGF-A interaction
Protocol: Plates (96-well, Nunc Maxisorp; Thermo Fisher Scientific, Waltham, MA, USA) were coated with human Neuropilin-1-Fc (200 ng per well, Cat #50-101-8343, Fisher, Hampton, NH) and incubated at 4° C. overnight. The following day, the plates were washed and blocked with 3% BSA in PBS to minimize non-specific adsorptive binding to the plates. EG00229 (Cat #6986, Tocris) or the indicated compounds were added at different concentrations and incubated for 30 min at room temperature prior to adding biotinylated human VEGF-A165 (Cat #BT10543-025, R&D systems) at 20 nM with 4 μg/ml of heparin. As a negative control, some wells received PBS containing 3% BSA and as a positive control only hVEGF-A165 was used. The plates were incubated at room temperature with shaking for 2 h. Next, the plates were washed with PBS 0.05% Tween to eliminate unbound protein. Bound biotinylated VEGF was detected by streptavidin-HRP (Cat #016-030-084, Jackson immunoResearch). Tetramethylbenzidine (Cat #DY999, R&D Systems, St. Louis, MO) was used as the colorimetric substrate. The optical density of each well was determined immediately, using a microplate reader (Multiskan Ascent; Thermo Fisher Scientific) set to 450 nm with a correction wavelength of 570 nm. Percentage of inhibition was calculated by the following formula: […]
where S is the optical density measured in the wells with the compounds, N is the optical density measured in the negative control wells and P is the optical density in the positive control wells. The IC50 was calculated using a non-linear regression function with GraphPad Prism Version 9. The data are presented as log (inhibitor) [M] versus normalized response-variable slope. Data are the means±S.E.M. of three independent experiments.
Finally, the ability of the compounds to interfere with the NRP-1NEGF-A interaction was evaluated using an enzyme linked immunosorbent assay (ELISA), as previously described (Moutal, et al., Pain 2021, 12(1), 243-252). Plates were coated with the extracellular domain of human NRP-1 (containing the a1a2 and the b1b2 regions) and the compounds were added to disrupt the NRP-1NEGF-A interaction. The biotinylated human VEGF-A used in the experiments described above (Moutal, et al., Pain 2021, 12(1), 243-252) was discontinued. For the instant studies, biotinylated hVEGF-A (Cat #BT10543-025, R&D systems) was used. Because of that, the known NRP-1 antagonist EG00229 and compound 4 from the above series of inhibitors (Moutal, et al., Pain 2021, 12(1), 243-252) were also tested in the instant studies.

VSV-eGFP-SARS-CoV-2 = type: cell-based
pY1175 VEGFR2 = assay: In cell Western for detecting inhibition of VEGFR2 activation by VEGF-A165; type: cell-based, mouse; conditions: CAD cells, compounds 12.5 μM or Spike 100 nM, 1 nM VEGF-A165, 1 hour

COc1ccc(C)c(-c2cc(=O)[nH]c(Nc3ccccc3)n2)c1 [Compound 1v, 2-anilino-4-(5-methoxy-2-methyl-phenyl)-1H-pyrimidin-6-one]
half-life (in vitro; human): > 2 h
half-life (in vitro; mouse): > 2 h
half-life (in vitro; rat): 0.0783 h
logD (physchem): 2.91
solubility kinetic (physchem): 8 µM (≈ 2.46 µg/mL)
IC50 (HepG2 cells): > 30 µM

CC(C)Cc1cc(C(=O)NCC2CCOC2)nc(=O)[nH]1 (centres unmarked) [Compound 2]
Rel % inhibition (NRP-1/VEGF-A interaction [1]): 59 ± 11%

CC(C)Cc1cc(C(=O)NCCO)nc(=O)[nH]1 [Compound 2a, N-(2-hydroxyethyl)-6-isobutyl-2-oxo-1H-pyrimidine-4-carboxamide]
half-life (in vitro; human): > 2 h
half-life (in vitro; mouse): > 2 h
half-life (in vitro; rat): > 2 h
IC50 (NRP-1/VEGF-A interaction [2]): ≤ 32 µM and 1.8 µM
logD (physchem): 0.02
solubility kinetic (physchem): > 200 µM
IC50 (HepG2 cells): > 30 µM

COc1ccccc1Nc1nc(-c2cnc(N3CCCC3)nc2C)cc(=O)[nH]1 [Compound 5]
Rel % inhibition (NRP-1/VEGF-A interaction [1]): 42 ± 10%

COc1ccccc1Nc1nncc(=O)[nH]1 [Compound 7]
Rel % inhibition (NRP-1/VEGF-A interaction [1]): 18 ± 19%

O=c1cnnc(Nc2ccccc2O)[nH]1 [Compound 8]
Rel % inhibition (NRP-1/VEGF-A interaction [1]): 24 ± 16%

Cc1cc(CN(C)Cc2cc(=O)[nH]c(=O)[nH]2)no1 [Compound 9]
Rel % inhibition (NRP-1/VEGF-A interaction [1]): 43 ± 8%

O=c1cc(Nc2cccc(O)c2)[nH]c(=O)[nH]1 [Compound 9c, 6-(3-hydroxyanilino)-1H-pyrimidine-2,4-dione]
half-life (in vitro; human): > 2 h
half-life (in vitro; mouse): > 2 h
half-life (in vitro; rat): > 2 h
IC50 (NRP-1/VEGF-A interaction [2]): 469 µM
logD (physchem): 0.38
solubility kinetic (physchem): > 200 µM
IC50 (HepG2 cells): > 30 µM

O=C(O)Cc1cnc(-c2cccnc2)[nH]c1=O [Compound 11]
Rel % inhibition (NRP-1/VEGF-A interaction [1]): 43 ± 16%

O=C(/C=C/c1ccc(O)c(O)c1)O[C@@H](C(=O)O)[C@@H](O)C(=O)O [Compound 17]
inhibition of VSV-eGFP-SARS-CoV-2 antiviral activity (VSV-eGFP-SARS-CoV-2): ~15%
Rel % inhibition (NRP-1/VEGF-A interaction [1]): 12 ± 16%

NC(N)=NCCC[C@H](NC(=O)c1sccc1NS(=O)(=O)c1cccc2nsnc12)C(=O)O [EG00229, reference compound]
IC50 (NRP-1/VEGF-A interaction [2]): 1370 µM
inhibition of VSV-eGFP-SARS-CoV-2 antiviral activity (VSV-eGFP-SARS-CoV-2): ineffective
Rel % inhibition (NRP-1/VEGF-A interaction [1]): 33 ± 10%
inhibition of VEGF-A stimulated increased phosphorylation of VEGFR2 (pY1175) (pY1175 VEGFR2): blocked
